Read-outs that look alike come from different tables or passages of the source.
Legend:
[1] = Retention of docetaxel SDC-TRAPs in plasma and tumor (Example 53); format: in vivo, Female SCID Mouse (H1975); details: DRD
Protocol: Blood samples (˜300 μL) were collected by cardiac puncture and immediately centrifuged at 6000 rpm for 8 minutes at approximately 4° C. Resulting plasma samples (˜150 μL) were stored at −80° C. until analysis.
Following sacrifice, tumors were immediately dissected on ice, flash frozen in liquid N2, and stored at −80° C. until analysis.
To 55 μL of plasma samples, 200 μL of methanol containing 150-250 ng/mL internal standard(s) was added. Samples were vortex mixed for approximately 1.5 minutes at ambient temperature and then centrifuged at 4400 rpm for 10 mm at approximately 4° C. The resulting supernatants (175 μL) were transferred to a 96-well plate and dried under nitrogen at 40° C. Dried samples were reconstituted with 100 μL 50/50 (v/v) water/methanol, vortex mixed and 10 μL were injected into LC-MS/MS.
Tumor samples were weighed and homogenized in 5 volume of ice-cold phosphate buffered saline on ice using a hand-held homogenizer. To 55 μL of tumor homogenate samples, 200 μL of methanol containing 150-250 ng/mL internal standard(s) was added. Samples were vortex mixed for approximately 1.5 minutes at ambient temperature and then centrifuged at 4400 rpm for 10 min at approximately 4° C. The resulting supernatants (175 μL) were transferred to a 96-well plate and dried under nitrogen at 40° C. Dried samples were reconstituted with 100 μL 50/50 (v/v) water/methanol, vortex mixed and 10 μL were injected into LC-MS/MS.
Plasma and tumor samples were analyzed by LC-MS/MS using an Agilent 1100 HPLC (Agilent Technologies, Santa Clara, Calif.) interfaced to an API 4000 tandem mass spectrometer (Applied Biosystems, Foster City, Calif.). […] The flow rate was 0.5 mL/min. […] Quantitation for each analyte was done by extrapolation from a standard curve ranging from 2.50 to 50000 nM with 1/x^2 weighting.
Blood samples (˜300 μL) were collected by cardiac puncture and immediately centrifuged at 6000 rpm for 8 minutes at approximately 4° C. Resulting plasma samples (˜150 μL) were transferred to Eppendorf tubes containing approximately 5-10 mg of NaF, vortex mixed, and stored at −80° C. until analysis.
Following sacrifice tumors were immediately dissected on ice, flash frozen in liquid N2, and stored at −80° C. until analysis.
To 60 μL of plasma samples, 25 μL of 75/25 (v/v) water/acetonitrile containing 100 ng/mL internal standard(s) and 200 μL of acetonitrile were added. Samples were vortex mixed for approximately 2 minutes at ambient temperature and then centrifuged at 4400 rpm for 10 min at approximately 4° C. The resulting supernatants (300 μL) were transferred to a 96-well plate and dried under nitrogen at 40° C. Dried samples were reconstituted with 500 μL 60/40 (v/v) water/acetonitrile, vortex mixed and 10 μL were injected into LC-MS/MS.
Tumor samples were weighed and homogenized in 3 volume of ice-cold phosphate buffered saline on ice using a hand-held homogenizer. To 60 μL of tumor homogenate samples, 25 μL of 75/25 (v/v) water/acetonitrile containing 100 ng/mL internal standard(s) and 200 μL of acetonitrile were added. […] The resulting supernatants (200 μL) were transferred to a 96-well plate and dried under nitrogen at 40° C. Dried samples were reconstituted with 600 μL 60/40 (v/v) water/acetonitrile, vortex mixed and 10 μL were injected into LC-MS/MS.
Plasma and tumor samples were analyzed by LC-MS/MS using an Agilent 1100 HPLC (Agilent Technologies, Santa Clara, Calif.) interfaced to an API 4000 tandem mass spectrometer (Applied Biosystems, Foster City, Calif.). The separation of analytes were performed on a Symmetry Shield Sum C18 (2.1×100 mm; 100 Å) column (Waters, Milford, Mass.) with a run time of 5.0 mm per sample using the mobile phase consisted of 0.1% formic acid (A) and acetonitrile containing 0.1% formic acid (B). […] Quantitation for each analyte was done by extrapolation from a standard curve ranging from 1.00 to 25000 ng/mL with 1/x^2 weighting.

[2] = Artificial membrane permeability assay (PAMPA)
HER2 = HER2 degradation assay with BT-474 cell line (Example 12, FACS); format: cell-based, human
[3] = of analyte at 24 h, dosed SDC-TRAP-0427 25 mg/10 mL/kg IV, Table 4
[4] = of analyte at 48 h, dosed SDC-TRAP-0427 25 mg/10 mL/kg IV, Table 4
[5] = of analyte at 72 h, dosed SDC-TRAP-0427 25 mg/10 mL/kg IV, Table 4
[6] = of analyte at 48 h, dosed SDC-TRAP-0426 25 mg/10 mL/kg IV, Table 4
[7] = of analyte at 48 h, dosed SDC-TRAP-0423 7 mg/10 mL/kg IV, Table 5, second optimized procedure
[8] = of analyte at 72 h, dosed SDC-TRAP-0423 7 mg/10 mL/kg IV, Table 5, second optimized procedure
[9] = of analyte at 48 h, dosed SDC-TRAP-0428 25 mg/10 mL/kg IV, Table 4

CC(=O)O[C@@]12CO[C@@H]1C[C@H](O)[C@@]1(C)C(=O)[C@H](O)C3=C(C)[C@@H](OC(=O)[C@H](OC(=O)CCC(=O)NC4CCN(C(=O)C5CCN(Cc6ccc(-n7c(O)nnc7-c7cc(C(C)C)c(O)cc7O)cc6)CC5)CC4)[C@@H](NC(=O)OC(C)(C)C)c4ccccc4)C[C@@](O)([C@@H](OC(=O)c4ccccc4)[C@H]21)C3(C)C [SDC-TRAP-0427]
concentration at 6 h ([1]; female, SCID, mouse, in vivo, of analyte at 6 h, dosed SDC-TRAP-0427 7 mg/10 mL/kg IV, Table 5, second optimized procedure, read-out: Plasma Conc.): 8390 nM
concentration at 6 h ([1]; female, SCID, mouse, in vivo, of analyte at 6 h, dosed SDC-TRAP-0427 25 mg/10 mL/kg IV, Table 4, read-out: Plasma Conc.): 20900 nM
concentration at 48 h ([1]; female, SCID, mouse, in vivo, of analyte at 48 h, dosed SDC-TRAP-0427 7 mg/10 mL/kg IV, Table 5, second optimized procedure, read-out: Plasma Conc.): 11.8 nM
concentration at 72 h ([1]; female, SCID, mouse, in vivo, of analyte at 72 h, dosed SDC-TRAP-0427 7 mg/10 mL/kg IV, Table 5, second optimized procedure, read-out: Plasma Conc.): 10.1 nM
Tumor Conc. ([1]; of analyte at 6 h, dosed SDC-TRAP-0427 7 mg/10 mL/kg IV, Table 5, second optimized procedure): 1.19 nmol/g of tissue
Tumor Conc. ([1]; of analyte at 6 h, dosed SDC-TRAP-0427 25 mg/10 mL/kg IV, Table 4): 13.6 nmol/g of tissue
Plasma Conc. [1, 3]: BQL
Tumor Conc. [1, 3]: 14.6 nmol/g of tissue
Tumor Conc. ([1]; of analyte at 48 h, dosed SDC-TRAP-0427 7 mg/10 mL/kg IV, Table 5, second optimized procedure): 0.458 nmol/g of tissue
Plasma Conc. [1, 4]: BQL
Tumor Conc. [1, 4]: 8.02 nmol/g of tissue
Tumor Conc. ([1]; of analyte at 72 h, dosed SDC-TRAP-0427 7 mg/10 mL/kg IV, Table 5, second optimized procedure): 0.372 nmol/g of tissue
Plasma Conc. [1, 5]: BQL
Tumor Conc. [1, 5]: 7.18 nmol/g of tissue

CC(=O)O[C@@]12CO[C@@H]1C[C@H](O)[C@@]1(C)C(=O)[C@H](O)C3=C(C)[C@@H](OC(=O)[C@H](OC(=O)CCC(=O)N4CCC(N5CCC(CCn6ccc7cc(-n8c(O)nnc8-c8cc(C(C)C)c(O)cc8O)ccc76)CC5)CC4)[C@@H](NC(=O)OC(C)(C)C)c4ccccc4)C[C@@](O)([C@@H](OC(=O)c4ccccc4)[C@H]21)C3(C)C [SDC-TRAP-0426]
concentration at 6 h ([1]; female, SCID, mouse, in vivo, of analyte at 6 h, dosed SDC-TRAP-0426 25 mg/10 mL/kg IV, Table 4, read-out: Plasma Conc.): 31.1 nM
concentration at 24 h ([1]; female, SCID, mouse, in vivo, of analyte at 24 h, dosed SDC-TRAP-0426 25 mg/10 mL/kg IV, Table 4, read-out: Plasma Conc.): 11.1 nM
Tumor Conc. ([1]; of analyte at 6 h, dosed SDC-TRAP-0426 25 mg/10 mL/kg IV, Table 4): 0.375 nmol/g of tissue
Tumor Conc. ([1]; of analyte at 24 h, dosed SDC-TRAP-0426 25 mg/10 mL/kg IV, Table 4): 0.256 nmol/g of tissue
Plasma Conc. [1, 6]: BQL
Tumor Conc. [1, 6]: 0.337 nmol/g of tissue

CC(C)c1cc(-c2nnc(C(=O)NCCCCCS(N)(=O)=O)n2-c2ccc(CN3CCOCC3)cc2)c(O)cc1O [SDC-TRAP-0232, 5-(2,4-dihydroxy-5-isopropylphenyl)-4-(4-(morpholinomethyl)phenyl)-N-(5-sulfamoylpentyl)-4H-1,2,4-triazole-3-carboxamide]
Mass Retention ([2]; incubation 5 h, first table): 21.0%

Cn1c(=O)c2c(ncn2C)n(C)c1=O [Caffeine]
Mass Retention ([2]; incubation 5 h, first table): 20.8%
Mass Retention ([2]; same protocol, second table): −0.11%

CC(=O)O[C@@]12CO[C@@H]1C[C@H](O)[C@@]1(C)C(=O)[C@H](O)C3=C(C)[C@@H](OC(=O)[C@H](O)[C@@H](NC(=O)OC(C)(C)C)c4ccccc4)C[C@@](O)([C@@H](OC(=O)c4ccccc4)[C@H]21)C3(C)C [Docetaxel, docetaxel, reference compound]
Mass Retention ([2]; incubation 5 h, first table): 17.6%

COc1cccc2c1C(=O)c1c(O)c3c(c(O)c1C2=O)C[C@@](O)(C(=O)CO)C[C@@H]3O[C@H]1C[C@H](N)[C@H](O)[C@H](C)O1 [Doxorubicin, doxorubicin, reference compound]
Mass Retention ([2]; incubation 5 h, first table): 21.0%

CC(C)c1cc(-c2nnc(O)n2-c2ccc3c(ccn3CCNC(=O)CCCCCNC(=O)CCCC[C@H]3SCC4NC(=O)NC43)c2)c(O)cc1O (stereo in doubt) [SDC-TRAP-0234, N-(2-(5-(3-(2,4-dihydroxy-5-isopropylphenyl)-5-hydroxy-4H-1,2,4-triazol-4-yl)-1H-indol-1-yl)ethyl)-6-(5-((3aR,4R,6aS)-2-oxohexahydro-1H-thieno[3,4-d]imidazol-4-yl)pentanamido)hexanamide]
Mass Retention ([2]; incubation 5 h, first table): 9.56%

CC(C)c1cc(-c2nnc(O)n2-c2ccc3c(ccn3CCNC(=O)CCCC[C@@H]3SCC4NC(=O)NC43)c2)c(O)cc1O (stereo in doubt) [SDC-TRAP-0233, N-(2-(5-(3-(2,4-dihydroxy-5-isopropylphenyl)-5-hydroxy-4H-1,2,4-triazol-4-yl)-1H-indol-1-yl)ethyl)-5-((3aS,4S,6aR)-2-oxohexahydro-1H-thieno[3,4-d]imidazol-4-yl)pentanamide]
Mass Retention ([2]; incubation 5 h, first table): 10.9%

CCNC(=O)c1nnc(-c2cc(C(C)C)c(O)cc2O)n1-c1ccc(N(C)C2CCN(C(=O)CCC(=O)O[C@H](C(=O)O[C@@H]3C[C@]4(O)[C@H](OC(=O)c5ccccc5)[C@H]5C6(OC(C)=O)COC6C[C@@H](O)[C@]5(C)C(=O)[C@@H](O)C(=C3C)C4(C)C)[C@H](NC(=O)OC(C)(C)C)c3ccccc3)CC2)nc1 (some centres unmarked) [SDC-TRAP-0423]
concentration at 6 h ([1]; female, SCID, mouse, in vivo, of analyte at 6 h, dosed SDC-TRAP-0423 7 mg/10 mL/kg IV, Table 5, second optimized procedure, read-out: Plasma Conc.): 2210 nM
Tumor Conc. ([1]; of analyte at 6 h, dosed SDC-TRAP-0423 7 mg/10 mL/kg IV, Table 5, second optimized procedure): 0.730 nmol/g of tissue
Plasma Conc. [1, 7]: BQL
Tumor Conc. [1, 7]: 0.0538 nmol/g of tissue
Plasma Conc. [1, 8]: BQL
Tumor Conc. [1, 8]: 0.0186 nmol/g of tissue

CC(C)c1cc(-c2nnc(O)n2-c2ccc3c(ccn3CCOCCNC(=O)CCn3cc(F)c(=O)[nH]c3=O)c2)c(O)cc1O [SDC-TRAP-0048, N-(2-(2-(5-(3-(2,4-dihydroxy-5-isopropylphenyl)-5-hydroxy-4H-1,2,4-triazol-4-yl)-1H-indol-1-yl)ethoxy)ethyl)-3-(5-fluoro-2,4-dioxo-3,4-dihydropyrimidin-1(2H)-yl)propanamide]
Mass Retention ([2]; incubation 5 h, first table): 10.8%

CC(=O)O[C@@]12CO[C@@H]1C[C@H](O)[C@@]1(C)C(=O)[C@H](O)C3=C(C)[C@@H](OC(=O)[C@H](OC(=O)C4CCN(C(=O)C5CCN(Cc6ccc(-n7c(O)nnc7-c7cc(C(C)C)c(O)cc7O)cc6)CC5)CC4)[C@@H](NC(=O)OC(C)(C)C)c4ccccc4)C[C@@](O)([C@@H](OC(=O)c4ccccc4)[C@H]21)C3(C)C [SDC-TRAP-0428]
Tumor Conc. ([1]; of analyte at 6 h, dosed SDC-TRAP-0428 25 mg/10 mL/kg IV, Table 4): 5.27 nmol/g of tissue
Tumor Conc. ([1]; of analyte at 24 h, dosed SDC-TRAP-0428 25 mg/10 mL/kg IV, Table 4): 3.89 nmol/g of tissue
Plasma Conc. [1, 9]: BQL
Tumor Conc. [1, 9]: 3.40 nmol/g of tissue
Tumor Conc. ([1]; of analyte at 72 h, dosed SDC-TRAP-0428 25 mg/10 mL/kg IV, Table 4): 1.20 nmol/g of tissue

CC(C)c1cc(-c2nnc(O)n2-c2ccc(CN3CCN(C(=O)CCn4cc(F)c(=O)[nH]c4=O)CC3)cc2)c(O)cc1O [SDC-TRAP-0049, 1-(3-(4-(4-(3-(2,4-dihydroxy-5-isopropylphenyl)-5-hydroxy-4H-1,2,4-triazol-4-yl)benzyl)piperazin-1-yl)-3-oxopropyl)-5-fluoropyrimidine-2,4(1H,3H)-dione]
Mass Retention ([2]; incubation 5 h, first table): 14.1%

CCNC(=O)c1nnc(-c2cc(C(C)C)c(O)cc2O)n1-c1ccc(CN2CCC(C(=O)N[C@@H](CC(C)C)C(=O)Nc3cccc4c3CN(C3CCC(=O)NC3=O)C4=O)CC2)cc1 (stereo partly drawn) [SDC-TRAP-0193, 1-(4-(3-(2,4-dihydroxy-5-isopropylphenyl)-5-(ethylcarbamoyl)-4H-1,2,4-triazol-4-yl)benzyl)-N-((2S)-1-((2-(2,6-dioxopiperidin-3-yl)-1-oxoisoindolin-4-yl)amino)-4-methyl-1-oxopentan-2-yl)piperidine-4-carboxamide]
Mass Retention ([2]; incubation 5 h, first table): 10.2%

CCc1c2c(nc3ccc(OC(=O)N4CCC[C@H]4C(=O)N4CCC(CCn5ccc6cc(-n7c(O)nnc7-c7cc(C(C)C)c(O)cc7O)ccc65)CC4)cc13)-c1cc3c(c(=O)n1C2)COC(=O)[C@]3(O)CC [SDC-TRAP-0210]
Mass Retention ([2]; incubation 5 h, first table): 34.8%
Mass Retention ([2]; same protocol, second table): 72.2%
IC50 (HER2): > 10 µM
